Measured values from article PMC4919791, “Effect of curcumin analogs onα-synuclein aggregation and cytotoxicity” (Scientific Reports, 2016).

Molecular target: T1, preformed α-Syn fibrils (Homo sapiens, UniProt P37840)
T1 construct: made in house; host or cells: Escherichia coli BL21
Assay: CD spectroscopy of preformed α-Syn fibrils with analogs
Assay type: biochemical
Details: 0 h and 48 h of incubation
Method: Further, the effect of curcumin analogs on the secondary structure of protein in preformed amyloid fibrils was studied by circular dichroism (CD) spectroscopy at 0 h and after 48 h of incubation. […] To further validate this, Fourier transform infrared spectroscopy (FTIR) was also performed with these samples, where spectra were recorded from 1500 to 1800 cm^−1.The region characteristic of protein secondary structures (1600–1700 cm^−1) was deconvoluted and the peaks were assigned according to published reports. FTIR spectra in the 1600–1700 cm^−1 region of preformed α-Syn fibrils in absence and presence of curcumin and its analogs are presented in Figs 4B and S4 and their percentage of secondary structures are shown in Table-S1.
20 μl of protein solution from 80 μM stock was diluted to 200 μl in 20 mM MES buffer, pH 6.0 with 0.01% NaN3 such that final protein concentration becomes 8 μM. The protein solution was then placed into a quartz cell (Hellma, Forest Hills, NY) of 0.1 cm path-length. Spectra were recorded using JASCO-810 instrument at 25 °C. Spectra acquisition was over the wavelength range of 198–260 nm with the scan speed of 100 nm/min, bandwidth 1 nm, data pitch 1 nm and response time of 1 sec. Processing of raw data was done by subtraction of buffer spectra and subsequently smoothing according to the manufacturer’s instructions.

secondary structure of preformed α-Syn fibrils by CD: remains unaltered
SMILES: COc1cc(/C=C/C(=O)CC(=O)/C=C/c2ccc(OCc3ccccc3)c(OC)c2)ccc1OCc1ccccc1 [C6]
